In ChEMBL document CHEMBL1133276, “Effect of C2-exo unsaturation on the cytotoxicity and DNA-binding reactivity of pyrrolo[2,1-c][1,4]benzodiazepines” (2000):

What was measured:
[1] = tested on: CH1; test: In vitro cytotoxicity of compound was determined against CH1 cell lines at 37 degree C for 96 hr; assay type: functional, Homo sapiens
[2] = tested on: Nucleic Acid; test: Change in thermal denaturation temperature determined from calf thymus DNA after incubation at 37 degree celsius for 4 hours; assay type: functional; details: Bos taurus
[3] = Resistance factor of compound was determined from cisplatin resistant CH1 cell lines to that of CH1 cell lines; assay type: functional
[4] = tested on: Nucleic Acid; test: Change in thermal denaturation temperature determined from calf thymus DNA after incubation at 37 degree celsius for 18 hours; assay type: functional; details: Bos taurus
[5] = tested on: A2780; test: In vitro cytotoxicity of compound was determined against A2780 cell lines (cisplatin resistant) at 37 degree C for 96 hr; assay type: functional, Homo sapiens
[6] = Resistance factor of compound was determined from cisplatin resistant A2780 cell lines to that of A2780 cell lines; assay type: functional
[7] = tested on: Nucleic Acid; test: Change in thermal denaturation temperature determined from calf thymus DNA after incubation at 37 degree celsius for 0 hours; assay type: functional; details: Bos taurus
[8] = tested on: CH1; test: In vitro cytotoxicity of compound was determined against CH1 (cisplatin resistant) cell lines at 37 degree C for 96 hr; assay type: functional, Homo sapiens
[9] = tested on: SK-OV-3; test: In vitro cytotoxicity of compound was determined against SKOV-3 cell lines at 37 degree C for 96 hr; assay type: functional, Homo sapiens
[10] = tested on: A2780; test: In vitro cytotoxicity of compound was determined against A2780 cell lines at 37 degree C for 96 hr; assay type: functional, Homo sapiens

SMILES	Cytotoxicity [1] [µM]	ΔTm [2] [°C]	Resistance factor [3]	ΔTm [4] [°C]	Cytotoxicity [5] [µM]	Resistance factor [6]	ΔTm [7] [°C]	Cytotoxicity [8] [µM]	Cytotoxicity [9] [µM]	Cytotoxicity [10] [µM]
C/C=C1/C[C@H]2C=Nc3cc(O)c(OC)cc3C(=O)N2C1	0.00013	–	–	–	–	–	–	–	–	–
COc1cc2c(cc1OCc1ccccc1)N=C[C@@H]1CCCN1C2=O	0.145	0.4	1	0.4	0.48	2.8	0.2	0.145	0.46	0.17
C=C1C[C@H]2C=Nc3cc(OC)c(OC)cc3C(=O)N2C1	0.066	1.95	1.3	2.38	0.36	2.4	1.46	0.084	0.39	0.15
COc1cc2c(cc1OC)C(=O)N1CCC[C@H]1C=N2	0.082	0.43	1.3	0.57	0.155	2.4	0.24	0.11	1.7	0.064
C=C1C[C@H]2C=Nc3cc(OCc4ccccc4)c(OC)cc3C(=O)N2C1	0.017	1.22	4.8	1.33	0.2	6.9	1.01	0.082	0.35	0.029
C/C=C1/C[C@H]2C=Nc3cc(OC)c(OC)cc3C(=O)N2C1	0.035	1.47	1.6	1.86	0.14	1.9	0.84	0.056	0.135	0.071
C/C=C1/C[C@H]2C=Nc3cc(OCc4ccccc4)c(OC)cc3C(=O)N2C1	0.031	1.65	1	2.34	0.066	1.9	0.92	0.031	0.081	0.034
